Reference: patent US7531660B2, “1-[[1-[(2-amino-6-methyl-4-pyridinyl)methyl]-4-fluoro-4-piperidinyl]carbonyl]-4-[2-(2-pyridinyl)-3H-imidazo[4,5-B]pyridin-3-YL]piperidine and methods of use thereof” (Schering Corporation, priority 2005, dated 2009)
Values joined by “and” are separate entries in the source; they are usually repeats but may differ in a detail not shown here. Identical values can stand only once. Like-named read-outs stand apart in the source and are kept apart here.

Legend:
[1] = target: T1, recombinant human histamine H3 receptor (Homo sapiens, UniProt Q9Y5N1); assay: Human H3-receptor binding assay ([3H]N-alpha-methylhistamine, HEK-293 membranes)
T1 construct: expressed in transfected cells
Description: Binding assays were performed with membranes from HEK-293 cells stably expressing recombinant human histamine H3 receptor. Each 200 μL assay volume contained 1.0 nM [^3H]N^−α-methylhistamine, test compound, and 3 μg of membrane protein in 50 mM Tris-HCl, pH 7.4. Total binding was determined in the absence of compound and nonspecific binding in the presence of 10^−5 M thioperamide. Material was incubated 30 minutes at 30° C. then filtered on GF/B filters. These were rinsed three times with cold buffer, then dried, impregnated with Meltilex scintillation counting medium, and counted. Ki values were determined from standard curve-fitting procedures. […] Values are averages from two assays with duplicate determinations in each. Errors are expressed as the range of these values from the mean.

Canine H3 Receptors = Canine H3 Receptors (Canis lupus familiaris, UniProt A0A8I3P226); assay: Binding to canine H3 receptors, brain P2 membranes; details: Dog brain membranes, N=2, mean ± SEM
Description: (§1) Binding assays were performed with membranes from a P2 pellet preparation of brain from each species as described in West et al., Mol Pharmacol 38:610-613 (1990). Frozen brains were thawed at room temperature and then disrupted in ten volumes (w:v) of ice-cold 50 mM Tris-HCl, pH 7.4, with a Polytron. Homogenates were centrifuged at 1000×g and supernatants then centrifuged at 50,000×g. Pellets from the second centrifugation were resuspended in buffer, sedimented again at 50,000×g, and stored frozen at −80° C.
(§2) Each 200 μL assay volume contained 1.0 nM [^3H]N^−α-methylhlstamine, test compound, and 300 μg of membrane protein in 50 mM Tris-HCl, pH 7.4. Total binding was determined in the absence of compound and nonspecific binding in the presence of 10^−5 M thioperamide. Assay mixtures are incubated 30 minutes at 30° C. then filtered on CF/B filters. Filters were rinsed three times with cold buffer, dried, impregnated with Meltilex scintillation counting medium, and counted. IC50 values were determined using standard curve-fitting procedures and Ki values were calculated from these using the method set forth in Cheng et al., Biochem Pharmacol 22:3099-3108 (1973). Each competition binding assay comprised ten concentrations of compound, each concentration assayed in duplicate. Binding data obtained for the Compound of Formula I to canine and feline H3 receptors are set forth below in Table 1. […]

Feline H3 Receptors = Feline H3 Receptors (Felis catus, UniProt A0ABI7WGM6); assay: Binding to feline H3 receptors, brain P2 membranes; details: Cat brain membranes, N=3, mean ± SEM
Description: as §1, §2

[2] = Canine pharmacokinetics after oral and i.v. administration; format: in vivo, beagle dogs; details: fasted dogs; for MRT: read-out: Mean Residence Time (MRT)
Description: The Compound of Formula I was administered at a dose of 3 mg/kg to fasted beagle dogs orally (PO) at […] (0.4% MC formulation) and i.v. at […] (captisol, pH 5.1 fornulation). Blood samples were taken at multiple time intervals for 48 hours post dosing. The blood samples were converted to plasma and stored at −20° C. until being assayed for the Compound of Formula I using an HPLC-API-MS/MS procedure. The pharmacokinctic parameters that were calculated from thiis study are sumarized in Table 2 below.

[3] = test system: mice made obese with a high fat diet; assay: Diet-induced obesity in mice (weight gain); format: in vivo; details: DIO mice, oral once a day, 0.3 mg/kg in 20% aqueous HPBCD
Description: Diet-induced obesity (DIO) was determined according to the following procedure. Young mice were maintained in individual cages at 22° C. on a 12:12 hr light/dark cycle. Mice were made obese with a high fat diet. Mice were orally gavaged daily with vehicle or compound; body weight and food intake were monitored daily.

[4] = test system: mice having diet-induced obesity; assay: Liver triglycerides in obese mice; format: in vivo; details: DIO mice, 10 mg/kg/day gavage for 12 days
Description: The Compound of Formula I was administered daily for 12 days via gavage to mice having diet-induced obesity at a dosage of 10 mg/kg/day (vehicle 0.4% aqueous methylcellulose (MC); see procedure for diet-induced obesity described above).
On day 12, the animals were sacrificed, their livers were collected, and liver pieces were extracted according to the procedure of Folch et al., J. Biol. Chem. 226:497-509 (1957). The collected liver tissue was then homogenized in 6 mL of chloroform:methanol (2:1), 4 mL water was added to the homogenized mixture and the resulting solution was vortexed, then centrifuged at 1000×g for 30 minutes. The chloroform layer was removed and dried under nitrogen to provide the extracted lipids, which were redissolved in 1 mL chloroform and aliquots were transferred into HPLC sample vials. […]
Chromatography was performed using an isocratic mobile phase containing 98.8% hexane and 1.2% isopropanol at a flow rate of 2 mL/min through a Zorbax Sil (4.6×25 cm) silica column (Agilent Technologies #880952-701). Lipids in a 5 μL injection were detected by absorbance at 206 nm and quantitated by computer integration (System Gold, Beckman) of elution profiles. Cholesterol, cholesteryl ester, and triglyceride concentrations were determined by comparison to standard curves using Non-polar Lipid Mix-B, Matreya, Inc., Pleasant Gap, Pa. cat. #1130.

[5] = Oral tolerance in dogs with plasma level analysis; format: in vivo, beagle dogs; details: for Plasma level at Day 0: prior to the study; for concentration at 24 h / concentration at 7 day: beagle, dog, plasma, po; for concentration at 24 h / concentration at 7 day / Plasma level at Day 1 / Plasma level at Day 7: 5 mg/kg, 5 mg/kg oral daily; for concentration at 24 h / Plasma level at Day 1: 24 hours after first dose; for concentration at 24 h: read-out: Plasma level at Day 1; for concentration at 7 day / Plasma level at Day 7: end of study
Description: Male and female beagle dogs (N=6, age≧4 months, each having a body weight of from 10-15 kg) were used in this study. The treated animals (N=4) were orally administered the Compound of formula I once a day for 7 days at a daily dosage of 5 mg/kg (5 times proposed efficacy dose). The control animals (N=2) were orally administered vehicle only. Animals were fasted for 8 hours prior to each administration of the Compound of formula I or vehicle and were fasted for 2 hours after each administration of the Compound of formula I or vehicle. Blood samples were collected before, during, and after the treatment period for pharmacokinetic analysis.
Approximately 4.0±1 mL of blood was drawn from each animal at prior to the study (day 0), at 24 hours after the first dose (day 1), and at the end of the study (day 7), using jugular venipuncture and immediately placed into separated Vacutainer® tubes containing EDTA anticoagulant, and processed for plasma. The plasma was aspirated and divided into two aliquots (≧0.3 ml each) and each aliquot was frozen at −70° C. or less.
Collected blood plasma samples were analyzed for the concentration of the Compound of formula I using the following analytical method: […]
D: Sample Preparation Procedure: • 1) Pipette 40 μL of sample into a 1 mL 96-well plate. • 2) Add 150 μL of internal standard solution to each well. • 3) Gently vortex plate for 1 minute. • 4) Centrifuge samples for 10 minutes (Eppendorf 5810 Centifuge). • 5) Pipette 100 μL of supernatant into a 350 μL 96-well plate. Results

[6] = beagle, dog, plasma, IV 3 mg/kg
[7] = beagle, dog, plasma, oral 3 mg/kg
[8] = beagle, dog, plasma, oral 3 mg/kg, 0.4% MC
[9] = both sexes, Mean of 4 treated dogs
[10] = dogs, daily oral 5 mg/kg for 7 days
[11] = male, male dog, individual animal

Sequence of Feline H3 Receptors (A0ABI7WGM6 entry or part of it): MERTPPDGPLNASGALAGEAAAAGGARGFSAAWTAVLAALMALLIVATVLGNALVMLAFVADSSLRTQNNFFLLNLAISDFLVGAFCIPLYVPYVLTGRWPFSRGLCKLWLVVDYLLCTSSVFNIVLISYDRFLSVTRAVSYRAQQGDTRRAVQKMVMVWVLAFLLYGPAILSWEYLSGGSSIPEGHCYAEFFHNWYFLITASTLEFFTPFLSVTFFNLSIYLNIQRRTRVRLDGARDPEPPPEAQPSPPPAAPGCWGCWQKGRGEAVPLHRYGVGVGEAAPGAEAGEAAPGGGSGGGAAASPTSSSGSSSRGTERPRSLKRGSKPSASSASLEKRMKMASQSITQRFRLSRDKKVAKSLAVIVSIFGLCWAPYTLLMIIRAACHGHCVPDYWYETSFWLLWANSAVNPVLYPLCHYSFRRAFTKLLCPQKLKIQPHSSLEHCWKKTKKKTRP
T1 sequence (Q9Y5N1 whole entry): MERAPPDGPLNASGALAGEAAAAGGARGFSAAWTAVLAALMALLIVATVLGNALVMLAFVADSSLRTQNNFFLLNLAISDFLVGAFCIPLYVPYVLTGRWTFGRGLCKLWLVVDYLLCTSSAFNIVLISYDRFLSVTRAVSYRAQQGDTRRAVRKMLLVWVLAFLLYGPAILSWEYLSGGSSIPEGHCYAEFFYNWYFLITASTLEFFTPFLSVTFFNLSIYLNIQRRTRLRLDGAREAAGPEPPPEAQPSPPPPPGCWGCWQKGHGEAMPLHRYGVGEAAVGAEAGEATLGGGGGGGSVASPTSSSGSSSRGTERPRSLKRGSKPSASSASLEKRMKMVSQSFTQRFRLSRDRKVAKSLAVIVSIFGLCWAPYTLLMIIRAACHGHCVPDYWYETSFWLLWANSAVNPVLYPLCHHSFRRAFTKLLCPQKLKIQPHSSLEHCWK
Sequence of Canine H3 Receptors (A0A8I3P226 1-445): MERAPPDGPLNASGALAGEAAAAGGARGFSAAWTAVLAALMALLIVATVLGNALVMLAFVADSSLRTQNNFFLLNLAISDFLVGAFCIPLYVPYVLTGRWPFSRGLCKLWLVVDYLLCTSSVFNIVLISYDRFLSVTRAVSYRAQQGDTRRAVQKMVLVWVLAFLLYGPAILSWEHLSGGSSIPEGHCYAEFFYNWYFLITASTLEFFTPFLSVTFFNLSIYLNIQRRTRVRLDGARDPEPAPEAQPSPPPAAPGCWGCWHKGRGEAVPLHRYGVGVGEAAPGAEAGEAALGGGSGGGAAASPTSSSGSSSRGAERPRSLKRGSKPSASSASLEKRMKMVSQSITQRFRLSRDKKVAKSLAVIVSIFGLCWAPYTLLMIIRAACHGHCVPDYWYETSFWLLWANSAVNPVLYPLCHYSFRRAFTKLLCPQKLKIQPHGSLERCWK

SMILES: Cc1cc(CN2CCC(F)(C(=O)N3CCC(n4c(-c5ccccn5)nc5cccnc54)CC3)CC2)cc(N)n1 [Compound of Formula I, 1-[[1-[(2-amino-6-methyl-4-pyridinyl)methyl]-4-fluoro-4-piperidinyl]carbonyl]-4-[2-(2-pyridinyl)-3H-imidazo[4,5-b]pyridin-3-yl]piperidine]
- Ki [1]: 4.6 nM
- Ki (Canine H3 Receptors): 1.3 ± 0.2 nM
- Ki (Feline H3 Receptors): 4.9 ± 0.6 nM
- clearance [2, 6]: 0.102 L/h/kg
- half-life [2, 6]: 9.5 h
- AUC(0-inf) ([2]; beagle, dog, plasma, IV 3 mg/kg, captisol pH 5.1): 32.8 µg·h/mL
- MRT [2, 6]: 10.9 h
- Vd ([2]; beagle, dog, plasma, IV 3 mg/kg, read-out: Vd (ss)): 1.1 L/kg
- Cmax [2, 7]: 0.91 µg/mL
- AUC(0-inf) [2, 8]: 18.9 µg·h/mL
- bioavailability [2, 8]: 58%
- MRT [2, 7]: 18.6 h
- Mean Absorption Time (MAT) (MRTpo − MRTiv) ([2]; oral 3 mg/kg): 7.8 h
- inhibition of weight gain [3]: statistically significant inhibition of weight gain
- reduction in liver triglyceride content relative to control ([4]; 0.4% MC): 52%
- liver triglyceride content ([4]; compound treated group, average): 861±87 mg/liver
- Plasma level at Day 0 ([5]; Mean of 4 treated dogs): 0.0017 µg/mL
- concentration at 24 h [5, 9]: 0.257 µg/mL
- concentration at 7 day [5, 9]: 0.422 µg/mL
- accumulation in plasma ([5]; dogs, 7 days daily oral 5 mg/kg): accumulated 7 days after daily oral administration
- adverse events [5, 10]: No adverse events were observed
- tolerability [5, 10]: well tolerated
- Plasma level at Day 1 ([5]; female dog, individual animal): 0.148 µg/mL and 0.604 µg/mL
- Plasma level at Day 7 ([5]; female dog, individual animal): 0.68 µg/mL
- Plasma level at Day 0 ([5]; female dog, individual animal): 0 µg/mL
- concentration at 7 day ([5]; female, female dog, individual animal): 0.54 µg/mL
- Plasma level at Day 1 ([5]; male dog, individual animal): 0.157 µg/mL
- Plasma level at Day 7 ([5]; male dog, individual animal): 0.207 µg/mL
- Plasma level at Day 0 ([5]; male dog, individual animal): 0 µg/mL and 0.0068 µg/mL
- concentration at 24 h [5, 11]: 0.118 µg/mL
- concentration at 7 day [5, 11]: 0.263 µg/mL
